Source: patent US20260224524A1, “A PHARMACEUTICAL COMPOSITION TARGETING MUTANT P53 AND HER2” (DR DOZO LABORATORIES, priority 2023, published 2026)
In brackets after ≈: the same amount, converted by molar mass.

Columns and labels:
[1] = tested on: Human Breast Cancer Cell Line MDA-MB-231; assay: Growth inhibition (% control growth, LC50, TGI, GI50) MDA-MB-231; assay type: cell-based
Description: The therapeutic effect of […] (peak 5) and SA2 (peak 4) is evaluated against human […] cancer cell line MDA-MB-231 by calculating the percentage growth inhibition, drug concentration of test compound needed to inhibit cell growth by 50% (GI50) values.
The therapeutic effect of SACC is evaluated against human […] cancer cell lines MDA-MB-231 by calculating the percentage growth inhibition, drug concentration of test compound needed to inhibit cell growth by 50% (GI50) values.

[2] = tested on: Human Pancreatic Cancer Cell Line Mia-Pa-Ca-2; assay: Growth inhibition (% control growth, LC50, TGI, GI50) Mia-Pa-Ca-2; assay type: cell-based; conditions: for GI50: Homo sapiens
Description: The therapeutic effect of SA1 (peak 5) and SA2 (peak 4) is evaluated against human pancreatic cancer cell line Mia-Pa-Ca-2 by calculating the percentage growth inhibition, drug concentration of test compound needed to inhibit cell growth by 50% (GI50) values.
The therapeutic effect of SACC is evaluated against human […] cancer cell line Mia-Pa-Ca-2 by calculating the percentage growth inhibition, drug concentration of test compound needed to inhibit cell growth by 50% (GI50) values.

[3] = Human tumour xenograft MDA-MB-231 model, survival; assay type: in vivo; conditions: for % Survival: Group B, 2.5 mg/kg i.v. day 1, 5, 9
Description: (§1) The therapeutic effect of SACC is evaluated against triple-negative breast cancer cell line MDA-MB-231 by analysing tumour volume and relative tumour volume. The study involved the use of six mice. These mice were administrated treatment according to the following Groups: […]

[4] = Human tumour xenograft MDA-MB-231 model, animal body weight; assay type: in vivo, mice; conditions: for Animal Body Weight: Group B, 2.5 mg/kg i.v. day 1, 5, 9
Description: as §1

[5] = tested on: Human Breast Cancer Cell Line MDA-MB-231; assay: Growth inhibition (% control growth, LC50, TGI, GI50) MDA-MB-231; assay type: cell-based; remark: listed apart in the source

Compound: COc1cccc2c1C(=O)c1c(O)c3c(c(O)c1C2=O)C[C@@](O)(C(=O)CO)C[C@@H]3O[C@H]1C[C@H](N)[C@H](O)[C@H](C)O1 [ADR, Adriamycin]
- % Control Growth ([1]; 10 μg/ml, Average Values): −88.7%
- % Control Growth ([1]; 10 μg/ml, Experiment 1): −90.5%
- % Control Growth ([1]; 10 μg/ml, Experiment 3): −86.3%
- % Control Growth ([1]; 20 μg/ml, Average Values): −83.1%
- % Control Growth ([1]; 20 μg/ml, Experiment 2): −84.8%
- % Control Growth ([1]; 20 μg/ml, Experiment 3): −79.3%
- % Control Growth ([1]; 40 μg/ml, Average Values): −81.2%
- % Control Growth ([1]; 40 μg/ml, Experiment 2): −82.5%
- % Control Growth ([1]; 40 μg/ml, Experiment 3): −80.2%
- % Control Growth ([1]; 80 μg/ml, Average Values): −74.8%
- % Control Growth ([1]; 80 μg/ml, Experiment 1): −75.2%
- % Control Growth ([1]; 80 μg/ml, Experiment 2): −78.1%
- % Control Growth ([1]; 10^−4M, Average Values): −69.1%
- % Control Growth ([1]; 10^−4M, Experiment 1): −68.3%
- % Control Growth ([1]; 10^−4M, Experiment 2): −69.6%
- % Control Growth ([1]; 10^−4M, Experiment 3): −69.4%
- % Control Growth ([1]; 10^−5M, Average Values): −82.4%
- % Control Growth ([1]; 10^−5M, Experiment 1): −80.5%
- % Control Growth ([1]; 10^−5M, Experiment 2): −83.4%
- % Control Growth ([1]; 10^−5M, Experiment 3): −83.3%
- % Control Growth ([1]; 10^−6M, Average Values): −85.0%
- % Control Growth ([1]; 10^−6M, Experiment 1): −83.1%
- % Control Growth ([1]; 10^−6M, Experiment 2): −86.2%
- % Control Growth ([1]; 10^−6M, Experiment 3): −85.8%
- % Control Growth ([1]; 10^−7M, Average Values): −87.8%
- % Control Growth ([1]; 10^−7M, Experiment 1): −82.8%
- % Control Growth ([1]; 10^−7M, Experiment 2): −91.0%
- % Control Growth ([1]; 10^−7M, Experiment 3): −89.6%
- GI50 ([1]; Homo sapiens, calculated from graph): < 10 µg/mL
- TGI ([1]; calculated from graph): <10 µg/mL
- GI50 ([2]; MIA PaCa-2, Mia-Pa-Ca-2, calculated from graph): < 10 µg/mL
- GI50 ([2]; MIA PaCa-2, Mia-Pa-Ca-2, Molar drug concentrations calculated from graph): 4.75 µg/mL (≈ 8.74 µM)
- % Control Growth ([2]; Mia-Pa-Ca-2, 10 μg/ml, Average Values): −89.7%
- % Control Growth ([2]; Mia-Pa-Ca-2, 10 μg/ml, Experiment 1): −88.7%
- % Control Growth ([2]; Mia-Pa-Ca-2, 10 μg/ml, Experiment 2): −89.2%
- % Control Growth ([2]; Mia-Pa-Ca-2, 10 μg/ml, Experiment 3): −91.2%
- % Control Growth ([2]; Mia-Pa-Ca-2, 20 μg/ml, Average Values): −91.1%
- % Control Growth ([2]; Mia-Pa-Ca-2, 20 μg/ml, Experiment 1): −91.3%
- % Control Growth ([2]; Mia-Pa-Ca-2, 20 μg/ml, Experiment 2): −90.4%
- % Control Growth ([2]; Mia-Pa-Ca-2, 20 μg/ml, Experiment 3): −91.5%
- % Control Growth ([2]; Mia-Pa-Ca-2, 40 μg/ml, Average Values): −91.5%
- % Control Growth ([2]; Mia-Pa-Ca-2, 40 μg/ml, Experiment 1): −91.4%
- % Control Growth ([2]; Mia-Pa-Ca-2, 40 μg/ml, Experiment 2): −92.3%
- % Control Growth ([2]; Mia-Pa-Ca-2, 40 μg/ml, Experiment 3): −91.0%
- % Control Growth ([2]; Mia-Pa-Ca-2, 80 μg/ml, Average Values): −84.7%
- % Control Growth ([2]; Mia-Pa-Ca-2, 80 μg/ml, Experiment 1): −84.1%
- % Control Growth ([2]; Mia-Pa-Ca-2, 80 μg/ml, Experiment 2): −87.5%
- % Control Growth ([2]; Mia-Pa-Ca-2, 80 μg/ml, Experiment 3): −82.3%
- % Control Growth ([2]; Mia-Pa-Ca-2, 10^−4M, Average Values): −89.6%
- % Control Growth ([2]; Mia-Pa-Ca-2, 10^−4M, Experiment 1): −88.2%
- % Control Growth ([2]; Mia-Pa-Ca-2, 10^−4M, Experiment 2): −89.7%
- % Control Growth ([2]; Mia-Pa-Ca-2, 10^−4M, Experiment 3): −91.0%
- % Control Growth ([2]; Mia-Pa-Ca-2, 10^−5M, Average Values): −87.8%
- % Control Growth ([2]; Mia-Pa-Ca-2, 10^−5M, Experiment 1): −88.7%
- % Control Growth ([2]; Mia-Pa-Ca-2, 10^−5M, Experiment 2): −87.4%
- % Control Growth ([2]; Mia-Pa-Ca-2, 10^−5M, Experiment 3): −87.3%
- % Control Growth ([2]; Mia-Pa-Ca-2, 10^−6M, Average Values): −75.8%
- % Control Growth ([2]; Mia-Pa-Ca-2, 10^−6M, Experiment 1): −77.3%
- % Control Growth ([2]; Mia-Pa-Ca-2, 10^−6M, Experiment 2): −75.7%
- % Control Growth ([2]; Mia-Pa-Ca-2, 10^−6M, Experiment 3): −74.5%
- % Control Growth ([2]; Mia-Pa-Ca-2, 10^−7M, Average Values): −60.2%
- % Control Growth ([2]; Mia-Pa-Ca-2, 10^−7M, Experiment 1): −3.2%
- % Control Growth ([2]; Mia-Pa-Ca-2, 10^−7M, Experiment 2): −88.2%
- % Control Growth ([2]; Mia-Pa-Ca-2, 10^−7M, Experiment 3): −89.3%
- TGI ([2]; Mia-Pa-Ca-2, Molar drug concentrations calculated from graph): 4.69 µg/mL (≈ 8.63 µM)
- TGI ([2]; Mia-Pa-Ca-2, calculated from graph): <10 µg/mL
- % Survival ([3]; day 1): 100%
- % Survival ([3]; day 5): 100%
- % Survival ([3]; day 9): 100%
- % Survival ([3]; day 12): 100%
- % Survival ([3]; day 15): 100%
- % Survival ([3]; day 18): 100%
- % Survival ([3]; day 21): 100%
- % Survival ([3]; day 25): 100%
- % Survival ([3]; day 30): 83%
- survival rate ([3]; till 25 days): 100%
- Animal Body Weight ([4]; day 1): 20.9 Grams
- Animal Body Weight ([4]; day 5): 19.9 Grams
- Animal Body Weight ([4]; day 9): 20.3 Grams
- Animal Body Weight ([4]; day 12): 20.1 Grams
- Animal Body Weight ([4]; day 15): 19.5 Grams
- Animal Body Weight ([4]; day 18): 20.4 Grams
- Animal Body Weight ([4]; day 21): 20.0 Grams
- Animal Body Weight ([4]; day 25): 20.2 Grams
- Animal Body Weight ([4]; day 30): 21.6 Grams
- change in body weight (in words) ([4]; average body weight over 30 days): minimal change in body weight
- % Control Growth ([5]; 10 μg/ml, Experiment 2): −89.3%
- % Control Growth ([5]; 20 μg/ml, Experiment 1): −85.1%
- % Control Growth ([5]; 40 μg/ml, Experiment 1): −80.9%
- % Control Growth ([5]; 80 μg/ml, Experiment 3): −71.2%
